# What was measured:
# Mus musculus [1] = test: Maximum rate of body weight loss after intravenous administration of 12.0 mg/kg of compound in mice; <0 indicates no body weight loss; type: functional
# Mus musculus [2] = test: Maximum rate of body weight loss after peroral administration of 12.0 mg/kg of compound in mice; <0 indicates no body weight loss; type: functional; conditions: route oral
# Mus musculus [3] = test: Maximum rate of body weight loss after peroral administration of 18.0 mg/kg of compound in mice; type: functional; conditions: route oral
# Mus musculus [4] = test: Maximum rate of body weight loss after peroral administration of 27.0 mg/kg of compound in mice; type: functional; conditions: route oral
# Mus musculus [5] = test: Maximum rate of body weight loss after peroral administration of 8.0 mg/kg of compound in mice; <0 indicates no body weight loss; type: functional; conditions: route oral
# Mus musculus [6] = test: Antitumor activity of 12.0 mg/kg of intravenously administered compound against B16 melanoma BL6 cells implanted into mice, value reported is percent compared to control; type: functional; conditions: route intravenous
# Mus musculus [7] = test: Antitumor activity of 12.0 mg/kg of perorally administered compound against B16 melanoma BL6 cells implanted into mice, value reported is percent compared to control; type: functional; conditions: route oral
# Mus musculus [8] = test: Antitumor activity of 18.0 mg/kg of intravenously administered compound against B16 melanoma BL6 cells implanted into mice, value reported is percent compared to control; type: functional; conditions: route intravenous
# Mus musculus [9] = test: Antitumor activity of 18.0 mg/kg of perorally administered compound against B16 melanoma BL6 cells implanted into mice, value reported is percent compared to control; type: functional; conditions: route oral
# Mus musculus [10] = test: Antitumor activity of 27.0 mg/kg of perorally administered compound against B16 melanoma BL6 cells implanted into mice, value reported is percent compared to control; type: functional; conditions: route oral
# Mus musculus [11] = test: Antitumor activity of 5.3 mg/kg of intravenously administered compound against B16 melanoma BL6 cells implanted into mice, value reported is percent compared to control; type: functional; conditions: route intravenous
# Mus musculus [12] = test: Antitumor activity of 8.0 mg/kg of intravenously administered compound against B16 melanoma BL6 cells implanted into mice, value reported is percent compared to control; type: functional; conditions: route intravenous
# Mus musculus [13] = test: Antitumor activity of 8.0 mg/kg of perorally administered compound against B16 melanoma BL6 cells implanted into mice, value reported is percent compared to control; type: functional; conditions: route oral
# Mus musculus [14] = test: Maximum rate of body weight loss after intravenous administration of 18.0 mg/kg of compound in mice; type: functional
# Mus musculus [15] = test: Maximum rate of body weight loss after intravenous administration of 5.3 mg/kg of compound in mice; <0 indicates no body weight loss; type: functional
# Mus musculus [16] = test: Maximum rate of body weight loss after intravenous administration of 8.0 mg/kg of compound in mice; <0 indicates no body weight loss; type: functional
# Mus musculus [17] = test: Effective dose of intravenously administered compound against B16 melanoma BL6 cells implanted into mice; range is 5.3-18.0; type: functional; conditions: B16, iv
# Mus musculus [18] = test: Effective dose of perorally administered compound against B16 melanoma BL6 cells implanted into mice; range is 12.0-27.0; type: functional; conditions: B16, po
# Mus musculus [19] = test: Number of mice died at 12.0 mg/kg of intravenous dose of compound among the total 6 mice tested; type: functional
# Mus musculus [20] = test: Number of mice died at 12.0 mg/kg of peroral dose of compound among the total 6 mice tested; type: functional; conditions: route oral
# Mus musculus [21] = test: Number of mice died at 18.0 mg/kg of intravenous dose of compound among the total 6 mice tested; type: functional
# Mus musculus [22] = test: Number of mice died at 18.0 mg/kg of peroral dose of compound among the total 6 mice tested; type: functional; conditions: route oral
# Mus musculus [23] = test: Number of mice died at 27.0 mg/kg of peroral dose of compound among the total 6 mice tested; type: functional; conditions: route oral
# Mus musculus [24] = test: Number of mice died at 5.3 mg/kg of intravenous dose of compound among the total 6 mice tested; type: functional
# Mus musculus [25] = test: Number of mice died at 8.0 mg/kg of intravenous dose of compound among the total 6 mice tested; type: functional
# Mus musculus [26] = test: Number of mice died at 8.0 mg/kg of peroral dose of compound among the total 6 mice tested; type: functional; conditions: route oral
# P388 = test: Concentration required to inhibit mouse P388 cell line growth by 50% at 72 hr continuous exposure; type: functional; conditions: P388, 72 h
# PC-6 [27] = test: Concentration required to inhibit human PC-6 cell line growth by 50% at 72 hr continuous exposure; type: functional; conditions: PC-6, 72 h
# PC-6 [28] = test: Concentration required to inhibit human PC-6/VP1-1 cell line growth by 50% at 72 hr exposure; type: functional; conditions: PC-6, 72 h
# PC-12 = test: Concentration required to inhibit human PC-12 cell line growth by 50% at 72 hr continuous exposure; type: functional; conditions: PC-12, 72 h
# PC-6 [29] = test: Concentration required to inhibit human PC-6/VCR29-9 cell line growth by 50% at 72 hr exposure; type: functional; conditions: PC-6, 72 h
# Mus musculus [30] = test: Maximum rate of body weight loss after intravenous administration of 11.9 mg/kg of compound in mice; type: functional
# Mus musculus [31] = test: Maximum rate of body weight loss after peroral administration of 17.8 mg/kg of compound in mice; type: functional; conditions: route oral
# Mus musculus [32] = test: Maximum rate of body weight loss after peroral administration of 7.9 mg/kg of compound in mice; <0 indicates no weight loss; type: functional; conditions: route oral
# B16 [33] = test: Antitumor activity of 11.9 mg/kg of intravenously administered compound against B16 melanoma BL6 cells implanted into mice, value reported is percent compared to control; type: functional, Mus musculus; conditions: route intravenous
# B16 [34] = test: Antitumor activity of 11.9 mg/kg of perorally administered compound against B16 melanoma BL6 cells implanted into mice, value reported is percent compared to control; type: functional, Mus musculus; conditions: route oral
# B16 [35] = test: Antitumor activity of 17.8 mg/kg of perorally administered compound against B16 melanoma BL6 cells implanted into mice, value reported is percent compared to control; type: functional, Mus musculus; conditions: route oral
# Mus musculus [36] = test: Antitumor activity of 7.8 mg/kg of intravenously administered compound against B16 melanoma BL6 cells implanted into mice, value reported is percent compared to control; type: functional; conditions: route intravenous
# Mus musculus [37] = test: Antitumor activity of 7.9 mg/kg of perorally administered compound against B16 melanoma BL6 cells implanted into mice, value reported is percent compared to control; type: functional; conditions: route oral
# Mus musculus [38] = test: Maximum rate of body weight loss after intravenous administration of 5.3 mg/kg of compound in mice; <0 indicates no weight loss; type: functional
# Mus musculus [39] = test: Maximum rate of body weight loss after intravenous administration of 7.8 mg/kg of compound in mice; type: functional
# Mus musculus [40] = test: Maximum rate of body weight loss after peroral administration of 11.9 mg/kg of compound in mice; type: functional; conditions: route oral
# Mus musculus [41] = test: Effective dose of intravenously administered compound against B16 melanoma BL6 cells implanted into mice; range is 7.8-11.9; type: functional; conditions: B16, iv
# Mus musculus [42] = test: Effective dose of perorally administered compound against B16 melanoma BL6 cells implanted into mice; range is 11.9-17.8; type: functional; conditions: B16, po
# Mus musculus [43] = test: Number of mice died at 11.9 mg/kg of intravenous dose, among the total 6 mice tested; type: functional
# Mus musculus [44] = test: Number of mice died at 11.9 mg/kg of peroral dose, among the total 6 mice tested; type: functional; conditions: route oral
# Mus musculus [45] = test: Number of mice died at 17.8 mg/kg of intravenous dose among the total 6 mice tested; type: functional
# Mus musculus [46] = test: Number of mice died at 17.8 mg/kg of peroral dose among the total 6 mice tested; type: functional; conditions: route oral
# Mus musculus [47] = test: Number of mice died at 26.7 mg/kg of peroral dose of compound among the total 6 mice tested; type: functional; conditions: route oral
# Mus musculus [48] = test: Number of mice died at 7.8 mg/kg of intravenous dose of compound among the total 6 mice tested; type: functional
# Mus musculus [49] = test: Number of mice died at 7.9 mg/kg of peroral dose of compound among the total 6 mice tested; type: functional; conditions: route oral
# Mus musculus [50] = test: Maximum rate of body weight loss after peroral administration of 600 mg/kg of compound in mice; <0 indicates no body weight loss; type: functional; conditions: route oral
# Mus musculus [51] = test: Antitumor activity of 100 mg/kg of perorally administered compound against B16 melanoma BL6 cells implanted into mice, value reported is percent compared to control; type: functional; conditions: route oral
# Mus musculus [52] = test: Antitumor activity of 600 mg/kg of perorally administered compound against B16 melanoma BL6 cells implanted into mice, value reported is percent compared to control; type: functional; conditions: route oral
# Mus musculus [53] = test: Maximum rate of body weight loss after peroral administration of 100 mg/kg of compound in mice; type: functional; conditions: route oral
# Mus musculus [54] = test: Number of mice died at 100 mg/kg of peroral dose of compound among the total 6 mice tested; type: functional; conditions: route oral
# Mus musculus [55] = test: Number of mice died at 600 mg/kg of peroral dose of compound among the total 6 mice tested; type: functional; conditions: route oral
smiles,measurement,setting,value
CC(=O)O[C@@]12CO[C@@H]1C[C@H](O)[C@@]1(C)[C@@H]3OC(CN4CCOCC4)O[C@@H]3C3=C(C)[C@@H](OC(=O)[C@H](O)[C@@H](NC(=O)OC(C)(C)C)c4ccccn4)C[C@@](O)([C@@H](OCc4ccccc4)[C@H]21)C3(C)C (some centres undefined),BWLmax,Mus musculus [1],<0%
same,BWLmax,Mus musculus [2],<0%
same,BWLmax,Mus musculus [3],0.3%
same,BWLmax,Mus musculus [4],4.5%
same,BWLmax,Mus musculus [5],<0%
same,IR,Mus musculus [6],94.4%
same,IR,Mus musculus [7],84.9%
same,IR,Mus musculus [8],95.6%
same,IR,Mus musculus [9],93.3%
same,IR,Mus musculus [10],97.3%
same,IR,Mus musculus [11],62.4%
same,IR,Mus musculus [12],87.2%
same,IR,Mus musculus [13],27.2%
same,BWLmax,Mus musculus [14],3.7%
same,BWLmax,Mus musculus [15],<0%
same,BWLmax,Mus musculus [16],<0%
same,ED50,Mus musculus [17],18 mg/kg
same,ED50,Mus musculus [18],27 mg/kg
same,Mortality,Mus musculus [19],0
same,Mortality,Mus musculus [20],0
same,Mortality,Mus musculus [21],0
same,Mortality,Mus musculus [22],0
same,Mortality,Mus musculus [23],0
same,Mortality,Mus musculus [24],0
same,Mortality,Mus musculus [25],0
same,Mortality,Mus musculus [26],0
same,GI50,P388,0.18 ng/mL
same,GI50,PC-6 [27],0.26 ng/mL
same,GI50,PC-6 [28],19.3 ng/mL
same,GI50,PC-12,0.13 ng/mL
same,GI50,PC-6 [29],2.43 ng/mL
CC(=O)O[C@@]12CO[C@@H]1CC[C@@]1(C)[C@@H]3O[C@H](CN4CCOCC4)O[C@@H]3C3=C(C)[C@@H](OC(=O)[C@H](O)[C@@H](NC(=O)OC(C)(C)C)C(C)(C)C)C[C@@](O)([C@@H](OCc4ccccc4)[C@@H]12)C3(C)C,BWLmax,Mus musculus [30],10.5%
same,BWLmax,Mus musculus [31],11.7%
same,BWLmax,Mus musculus [32],<0%
same,IR,B16 [33],93.8%
same,IR,B16 [34],63.4%
same,IR,B16 [35],90.3%
same,IR,Mus musculus [11],28.6%
same,IR,Mus musculus [36],71.9%
same,IR,Mus musculus [37],25.5%
same,BWLmax,Mus musculus [38],<0%
same,BWLmax,Mus musculus [39],<1.2%
same,BWLmax,Mus musculus [40],0.4%
same,ED50,Mus musculus [41],11.9 mg/kg
same,ED50,Mus musculus [42],17.8 mg/kg
same,Mortality,Mus musculus [43],0
same,Mortality,Mus musculus [44],0
same,Mortality,Mus musculus [45],6
same,Mortality,Mus musculus [46],0
same,Mortality,Mus musculus [47],6
same,Mortality,Mus musculus [24],0
same,Mortality,Mus musculus [48],0
same,Mortality,Mus musculus [49],0
same,GI50,P388,0.34 ng/mL
same,GI50,PC-6 [27],0.7 ng/mL
same,GI50,PC-6 [28],5.56 ng/mL
same,GI50,PC-12,0.13 ng/mL
same,GI50,PC-6 [29],0.85 ng/mL
CC(=O)O[C@@]12CO[C@@H]1C[C@H](O)[C@@]1(C)C(=O)[C@H](O)C3=C(C)[C@@H](OC(=O)[C@H](O)[C@@H](NC(=O)OC(C)(C)C)c4ccccc4)C[C@@](O)([C@@H](OCc4ccccc4)[C@H]21)C3(C)C,BWLmax,Mus musculus [50],<0%
same,IR,Mus musculus [51],95.1%
same,IR,Mus musculus [52],6.2%
same,BWLmax,Mus musculus [53],<0%
same,Mortality,Mus musculus [54],0
same,Mortality,Mus musculus [55],0
same,GI50,P388,0.78 ng/mL
same,GI50,PC-6 [27],0.26 ng/mL
same,GI50,PC-6 [28],442 ng/mL
same,GI50,PC-12,19.1 ng/mL
same,GI50,PC-6 [29],62.1 ng/mL

# Reference: ChEMBL document CHEMBL1146649, “New highly active taxoids from 9 beta-dihydrobaccatin-9,10-acetals. Part 5” (2004)
